Experimental data as given in US4199512A, “Compounds for alleviating hypertension” (E. R. Squibb & Sons, Inc., priority 1978, dated 1980).
Each block holds one compound with its values, some of them ahead of it.

What was measured:
[1] = molecular target: T1, angiotensin converting enzyme (Oryctolagus cuniculus, UniProt P12822); experiment: Inhibition of isolated angiotensin-converting enzyme of rabbit lung (cleavage of hippuryl-L-histidyl-L-leucine); assay type: biochemical; parameters: isolated angiotensin converting enzyme from rabbit lungs; from tissue; host or cells: rabbit lung; details: 5 mM hippuryl-L-histidyl-L-leucine; pH 8.3; 30 minutes at 37° C.; read-out: I50 (50% inhibition of angiotensin-converting enzyme) (converted)
T1 sequence (P12822 34-1310): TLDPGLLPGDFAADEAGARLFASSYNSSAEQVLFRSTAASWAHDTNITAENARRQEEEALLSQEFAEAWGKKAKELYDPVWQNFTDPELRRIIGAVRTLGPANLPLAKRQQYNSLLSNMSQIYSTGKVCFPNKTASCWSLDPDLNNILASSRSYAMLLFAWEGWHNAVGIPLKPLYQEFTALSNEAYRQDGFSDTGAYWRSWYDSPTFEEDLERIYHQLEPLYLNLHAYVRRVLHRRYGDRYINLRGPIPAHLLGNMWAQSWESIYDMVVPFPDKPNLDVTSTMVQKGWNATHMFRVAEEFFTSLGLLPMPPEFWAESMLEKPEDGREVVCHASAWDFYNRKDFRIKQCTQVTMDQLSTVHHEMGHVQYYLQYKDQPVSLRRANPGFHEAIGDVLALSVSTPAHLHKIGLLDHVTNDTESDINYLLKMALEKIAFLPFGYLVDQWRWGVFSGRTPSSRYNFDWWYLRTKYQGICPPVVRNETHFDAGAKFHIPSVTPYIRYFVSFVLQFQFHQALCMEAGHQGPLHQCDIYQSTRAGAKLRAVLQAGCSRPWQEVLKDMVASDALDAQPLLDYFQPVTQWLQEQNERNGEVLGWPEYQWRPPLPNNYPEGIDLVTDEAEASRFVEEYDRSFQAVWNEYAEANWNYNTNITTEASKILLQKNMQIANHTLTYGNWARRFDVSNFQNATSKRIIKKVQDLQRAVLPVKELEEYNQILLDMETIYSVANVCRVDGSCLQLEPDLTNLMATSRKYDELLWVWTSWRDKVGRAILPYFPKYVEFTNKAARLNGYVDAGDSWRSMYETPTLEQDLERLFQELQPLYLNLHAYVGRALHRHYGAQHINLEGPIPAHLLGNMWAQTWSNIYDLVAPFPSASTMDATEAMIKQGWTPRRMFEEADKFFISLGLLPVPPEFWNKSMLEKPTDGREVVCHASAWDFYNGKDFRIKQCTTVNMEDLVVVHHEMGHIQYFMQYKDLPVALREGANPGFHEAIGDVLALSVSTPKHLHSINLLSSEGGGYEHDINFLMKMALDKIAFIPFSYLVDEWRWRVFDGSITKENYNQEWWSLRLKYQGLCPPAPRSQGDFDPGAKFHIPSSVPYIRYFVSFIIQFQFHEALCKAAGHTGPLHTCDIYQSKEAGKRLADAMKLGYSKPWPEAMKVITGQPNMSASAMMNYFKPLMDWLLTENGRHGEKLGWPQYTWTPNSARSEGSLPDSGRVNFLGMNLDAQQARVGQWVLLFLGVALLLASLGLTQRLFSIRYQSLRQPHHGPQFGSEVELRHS
Description: Although conversion of angiotensin I to angiotensin II by angiotensin-converting enzyme is probably the reaction of most importance in the pathology of hypertension, the activity of the isolated enzyme is more conveniently and accurately assayed by measuring its rate of cleavage of a simpler peptide substrate, hippuryl-L-histidyl-L-leucine. For determination of I50 values (concentrations of compounds expressed in micrograms/ml producing a 50% inhibition of angiotensin-converting enzyme) various concentrations of each compound are added to 13×100 mm tubes along with the following components at the indicated final concentrations in a final volume of 0.25 ml: 100 mM potassium phosphate buffer, pH 8.3; 300 mM sodium chloride; 5 mM hippuryl-L-histidyl-L-leucine; and 5 milliunits of angiotensin-converting enzyme of rabbit lung. Controls containing no inhibitor (100% activity), and those acidified before addition of the enzyme (0% activity) are similarly prepared. All of the enzymatic reactions are initiated by addition of the enzyme component; tubes are incubated for 30 minutes at 37° C.; and reactions are terminated by addition of 0.25 ml. of 1 N HCl. The hippuric acid formed by action of angiotensin-converting enzyme on hippuryl-L-histidyl-L-leucine is extracted into ethyl acetate, evaporated to dryness, redissolved in water and quantitated from its absorbance at 228 nm. The percent inhibition by each concentration of compound is calculated by comparison with the 0% and 100% activity controls. The concentrations of representative compounds of the present invention which inhibit activity of angiotensin-converting enzyme by 50% are shown in the following table: […]

[2] = tested on: angiotensin I converting enzyme in excised guinea pig ileum; experiment: Inhibition of angiotensin I converting enzyme in excised guinea pig ileum (contractile activity of angiotensin I); details: Krebs solution at 37°; angiotensin I 25 ng/ml
Method: The procedure for evaluating the inhibition of angiotensin I converting enzyme in excised guinea pig ileum is carried out as follows: varying concentrations of the compound are added to an excised guinea pig ileum bath in Krebs solution at 37°, aerated with a mixture of 95% O2 -5% CO2. After two minutes, angiotensin I (25 ng/ml) is added and the isotonic […] are measured. The concentration of representative compounds of the present invention (in micrograms/ml) which inhibit the contractile activity of angiotensin I by 50% (IC50) are shown in the following table: […]

[3] = tested on: angiotensin I pressor response; experiment: Inhibition of angiotensin I pressor response in unanesthetized rats, oral; assay type: in vivo, rat (male, Sprague-Dawley); details: angiotensin I 0.31 μg/kg, 2 animals
Method: Representative compounds of the present invention are administered orally to unanesthetized male rats of the Sprague-Dawley strain, weighing about 200 g., followed by an injection of 0.31 μg/kg of angiotensin I. The following table indicates the degree of inhibition obtained.

[4] = tested on: 2-kidney Goldblatt renal hypertensive rat; experiment: Mean blood pressure in 2-kidney Goldblatt renal hypertensive rat, oral; assay type: in vivo, rat (male, CF Nelson); details: second dosage day, 300 mg oral
Description: Male rats of the CF Nelson strain are anesthetized with ether and each left renal artery is partially constricted with a silver clip (i.d. 0.22 mm). The right kidney and renal artery are left intact.

[5] = tested on: angiotensinogen and renin blood levels; details: normotensive rats; cited from earlier work
[6] = tested on: anesthetized normotensive rats; details: intravenous; cited from earlier work
[7] = in vivo; cited from earlier work
normotensive rat = experiment: Blood pressure in normotensive rat, oral; assay type: in vivo; details: same dose (300 mg) orally

SMILES: CC(C)C[C@H](NC(=O)CCS)C(=O)O [Example 4, N-(3-Mercaptopropanoyl)-L-leucine]
- IC50 [1]: 8.21 µM
- IC50 (inhibit the contractile activity of angiotensin I by 50%) [2]: 2.0 µg/mL

SMILES: O=C(CCS)N[C@@H](Cc1ccccc1)C(=O)O [Example 6, N-(3-Mercaptopropanoyl)-L-phenylalanine]
- IC50 [1]: 3.39 µM
- IC50 (inhibit the contractile activity of angiotensin I by 50%) [2]: 0.52 µg/mL

SMILES: N=C(N)NCCC[C@H](NC(=O)CCS)C(=O)O [Example 8, N^α -(3-Mercaptopropanoyl)-L-arginine]
- IC50 [1]: 0.648 µM
- IC50 (inhibit the contractile activity of angiotensin I by 50%) [2]: 0.9 µg/mL

SMILES: N=C(N)NCCC[C@H](NC(=O)C(CS)Cc1ccccc1)C(=O)O (stereo partly drawn) [Example 34, N^α -(3-mercapto-2-benzylpropanoyl)-L-arginine]
- IC50 (inhibit the contractile activity of angiotensin I by 50%) [2]: 4.1 µg/mL

SMILES: CC(S)C(=O)NCC(=O)O (stereo not shown) [Example 51, N-2-Mercaptopropanoylglycine]
- Mean blood pressure ([4]; Rat #9, 1 h after drug, before drug 222): 206 mm Hg
- Mean blood pressure ([4]; Rat #9, 2 h after drug, before drug 222): 173 mm Hg
- Mean blood pressure ([4]; Rat #9, 3 h after drug, before drug 222): 157 mm Hg
- Mean blood pressure ([4]; Rat #9, 4 h after drug, before drug 222): 184 mm Hg
- Mean blood pressure ([4]; Rat #9, 5 h after drug, before drug 222): 206 mm Hg
- Mean blood pressure ([4]; Rat #9, 6 h after drug, before drug 222): 199 mm Hg
- Mean blood pressure ([4]; Rat #10, 1 h after drug, before drug 206): 203 mm Hg
- Mean blood pressure ([4]; Rat #10, 2 h after drug, before drug 206): 190 mm Hg
- Mean blood pressure ([4]; Rat #10, 3 h after drug, before drug 206): 189 mm Hg
- Mean blood pressure ([4]; Rat #10, 4 h after drug, before drug 206): 199 mm Hg
- Mean blood pressure ([4]; Rat #10, 5 h after drug, before drug 206): 195 mm Hg
- Mean blood pressure ([4]; Rat #10, 6 h after drug, before drug 206): 197 mm Hg
- angiotensinogen [5]: increases angiotensinogen
- renin blood levels [5]: lowers renin blood levels
- IC50 [1]: 15.9 µM
- lowering of the blood pressure [6]: produced lowering of the blood pressure
- IC50 (inhibit the contractile activity of angiotensin I by 50%) [2]: 2.0 µg/mL
- effects of blood pressure [7]: no noticeable effects of blood pressure
- effects on blood pressure (normotensive rat): no significant effects on blood pressure
- % maximum inhibition of angiotensin I pressor response ± SE ([3]; 10 mg/kg oral): 29.9 ± 3.1%
- % maximum inhibition of angiotensin I pressor response ± SE ([3]; 30 mg/kg oral): 52.9 ± 15.8%
- % maximum inhibition of angiotensin I pressor response ± SE ([3]; 100 mg/kg oral): 64.9 ± 12.3%

Now from value to compound, other results behind:

- IC50 [1]: 6.77 µM
- IC50 (inhibit the contractile activity of angiotensin I by 50%) [2]: 0.94 µg/mL
SMILES: C[C@H](NC(=O)CCS)C(=O)O [Example 2, N-(3-mercaptopropanoyl)-L-alanine]

- IC50 [1]: 10.2 µM
- IC50 (inhibit the contractile activity of angiotensin I by 50%) [2]: 0.94 µg/mL
SMILES: CN(CC(=O)O)C(=O)CCS [Example 10, N-(3-Mercaptopropanoyl)sarcosine]

- IC50 [1]: 12.3 µM
- IC50 (inhibit the contractile activity of angiotensin I by 50%) [2]: 4.5 µg/mL
SMILES: O=C(O)CNC(=O)CCS [Example 15, N-(3-Mercaptopropanoyl)glycine]
- % maximum inhibition of angiotensin I pressor response ± SE ([3]; 10 mg/kg oral): 34.2 ± 6.7%
- % maximum inhibition of angiotensin I pressor response ± SE ([3]; 100 mg/kg oral): 61.5 ± 1.2%
